Test results from patent US10183015B2, “Heterocyclic compounds and methods of use” (Medivation Technologies LLC, priority 2015, dated 2019).
Where “and” joins values, the source holds several entries; their conditions need not be identical. Equal entries are not always repeated.

Experiments:
[1] = ob/ob mice: tolerability, weight gain and food intake; assay type: in vivo; conditions: over 8 weeks, all treatment groups
Description: (§1) Groups of mice were either untreated (group 1) or treated for 8 weeks with vehicle (group 2), or with Compound #37 at 5 mg/kg (group 3), 10 mg/kg (group 4), or 20 mg/kg (group 5). Treatment was daily by oral gavage in vehicle (20% HPβCD). Values are presented as mean±standard error of the mean (sem). A t test was performed to compare the untreated group and the vehicle group. Then Compound #37-treated groups were compared to the vehicle-treated group with a 1-way ANOVA+Dunnett's post-test. […] For each test, a p<0.05 was considered significant. Of note, animal #39, group 1 was excluded from the statistical analysis, due to low values for all parameters measured. Some other values were considered as out-liners and excluded from the statistical analysis when the value was far below the mean minus 2 SD. Excluded values are marked with an asterisk in Tables 21-23.
These plasma lipid results are consistent with SCAP/SREBP pathway inhibition seen in tissue-specific SCAP knockout mice (Horton et al, 2002) and with inhibition of SREBP in vivo (Moon et al, 2012).

[2] = test system: diet-induced NASH obese insulin resistant mice; assay: DIN mouse model: liver Sirius Red staining (% labeling, collagen deposition); assay type: in vivo; conditions: for Sirius red labeling: liver
Description: Male C57Bl/6J mice (8 weeks old) were housed in enriched ventilated cages (31×12.5×12.7 cm) throughout the experimental phase. Animals' cages litters were changed at least once a week. Animal were housed 5 per cage on inverted 12-hour light cycle (at 09:00 am lights off), 22±2° C. and 55±10% relative humidity. The acclimation period was 20 days. During the acclimation period, all mice were fed a standard diet (RM1 (E) 801492, SDS) and tap water ad libitum. After the acclimation period, mice were fed with the DIN diet (60% fat, cholesterol enriched) and fructose-enriched tap water ad libitum until the end of the experiment.
At 6 weeks of diet, mice were 4-hour fasted (09:00 am to 1:00 pm) and blood (150 μl/EDTA) was collected at 01:00 pm by retro-orbital bleeding under isoflurane anesthesia. Mice were then allocated in 2 homogenous groups (n=12/group) according to their plasma levels of ALT (average levels: 685U/L), AST (average levels: 627U/L) and HOMA-IR index (average value: 4.7), into 2 homogenous groups (see values at day 0 in Tables 15A and 15B ALT/AST and Tables 16A and 16B for HOMA-IR). Mice were then treated once daily by oral gavage with vehicle (Group 1) or Compound #37 at 20 mg/kg (Group 2) for 70 days.
Slides having a single hepatic lobe section stained with H&E and […] were digitized using a Nanozoomer from Hamamatsu. Sections were evaluated with knowledge of groups. In agreement with the unchanged hepatic triglycerides levels, oil red O staining and % labeling was not changed with Compound #37. A substantial reduction in Sirius Red labeling was also observed, leading to a 61% reduction (p<0.001 vs. vehicle) in % labeling.
To investigate whether Compound #37 improves pre-existing steatosis/NASH pathology, a study was conducted using a 16-week diet-induced NASH mouse model. In this model, mice develop steatosis that progresses with inflammation and fibrosis that mimic many of the observed pathologies in human nonalcoholic fatty liver disease (NAFLD) and NASH (Hebbard & George, 2010). […]

ob/ob mice = assay: ob/ob mice: plasma triglycerides, non-esterified fatty acids, total cholesterol, insulin; assay type: in vivo, mouse; conditions: 8 weeks
Description: as §1

[3] = 5 mg/kg daily oral gavage, group mean
[4] = 5 mg/kg daily oral gavage, individual animal values, 5 mg/kg
[5] = 10 mg/kg daily oral gavage, group mean
[6] = 10 mg/kg daily oral gavage, individual animal values, 10 mg/kg
[7] = 20 mg/kg daily oral gavage, group mean
[8] = 20 mg/kg daily oral gavage, individual animal values, 20 mg/kg

Question: Which results are given for `CC(C)Cc1cc(-c2nc(-c3ccc(NS(=O)(=O)C(F)(F)F)cc3Cl)cs2)ccn1` [Compound 37, N-(3-chloro-4-(2-(2-isobutylpyridin-4-yl)thiazol-4-yl)phenyl)-1,1,1-trifluoromethanesulfonamide]?
Answer: tolerability [1]: generally well tolerated; Sirius Red % labeling reduction ([2]; 20 mg/kg, 70 days, p<0.001 vs. vehicle): 61%; Sirius red labeling ([2]; 20 mg/kg group, mean, n 11): 0.7%; Sirius red labeling ([2]; 20 mg/kg, individual animals): 0.5% and 0.8% (4×) and 0.6% (2×) and 1.0% and 0.9% and 0.7% (2×); plasma insulin (ob/ob mice; [3]): 274.1 μU/mL; plasma non-esterified fatty acids (ob/ob mice; [3]): 0.7 mM; plasma total cholesterol (ob/ob mice; [3]): 1.8 g/L; plasma triglycerides (ob/ob mice; [3]): 1.6 g/L; plasma insulin (ob/ob mice; 5 mg/kg daily oral gavage, individual animal values (* = excluded from statistical analysis), 5 mg/kg): 198.7 μU/mL and 262.7 μU/mL and 181.1 μU/mL and 250.5 μU/mL and 118.7 μU/mL and 394.6 μU/mL and 24.6* μU/mL and 374.6 μU/mL and 512.6 μU/mL and 173.1 μU/mL; plasma non-esterified fatty acids (ob/ob mice; [4]): 1.028 mM and 0.77 mM and 0.616 mM and 0.552 mM and 0.68 mM (2×) and 1.092 mM and 0.783 mM and 0.655 mM and 0.539 mM; plasma total cholesterol (ob/ob mice; [4]): 1.587 g/L and 1.903 g/L and 1.916 g/L and 1.853 g/L and 2.017 g/L and 1.537 g/L and 2.08 g/L and 1.625 g/L and 1.347 g/L and 1.638 g/L; plasma triglycerides (ob/ob mice; [4]): 1.283 g/L and 1.152 g/L and 1.038 g/L and 1.397 g/L (2×) and 1.593 g/L and 1.201 g/L and 1.609 g/L and 2.408 g/L and 2.504 g/L; plasma insulin (ob/ob mice; [5]): 357.3 μU/mL; plasma non-esterified fatty acids (ob/ob mice; [5]): 0.7 mM; plasma total cholesterol (ob/ob mice; [5]): 1.7 g/L; plasma triglycerides (ob/ob mice; [5]): 1.3 g/L; plasma insulin (ob/ob mice; [6]): 123.8 μU/mL and 457.7 μU/mL and 81.9 μU/mL and 949.0 μU/mL and 153.3 μU/mL and 62.6 μU/mL and 508.2 μU/mL and 904.4 μU/mL and 194.4 μU/mL and 137.5 μU/mL; plasma non-esterified fatty acids (ob/ob mice; [6]): 1.009 mM and 0.474 mM and 0.828 mM and 0.7 mM and 0.564 mM and 0.951 mM and 0.738 mM and 0.661 mM and 0.809 mM and 0.307 mM; plasma total cholesterol (ob/ob mice; [6]): 1.587 g/L and 1.865 g/L (2×) and 1.891 g/L (2×) and 1.827 g/L (2×) and 1.234 g/L and 1.651 g/L and 1.183 g/L; plasma triglycerides (ob/ob mice; [6]): 0.94 g/L and 1.12 g/L and 0.875 g/L and 1.218 g/L and 1.528 g/L and 1.299 g/L and 1.968 g/L and 1.381 g/L and 1.593 g/L and 0.777 g/L; plasma insulin (ob/ob mice; [7]): 444.1 μU/mL; plasma non-esterified fatty acids (ob/ob mice; [7]): 0.5 mM; plasma total cholesterol (ob/ob mice; [7]): 1.5 g/L; plasma triglycerides (ob/ob mice; [7]): 1.5 g/L; plasma insulin (ob/ob mice; [8]): 447.3 μU/mL and 10.5 μU/mL and 730.1 μU/mL and 505.0 μU/mL and 254.3 μU/mL and 881.0 μU/mL and 810.7 μU/mL and 483.7 μU/mL and 62.6 μU/mL and 256.2 μU/mL; plasma non-esterified fatty acids (ob/ob mice; [8]): 0.429 mM and 0.642 mM and 0.494 mM and 0.481 mM and 0.423 mM (2×) and 0.513 mM and 0.397 mM and 0.687 mM and 0.597 mM; plasma total cholesterol (ob/ob mice; [8]): 1.234 g/L and 0.893 g/L and 1.499 g/L and 1.714 g/L and 1.663 g/L (2×) and 1.625 g/L and 1.587 g/L and 1.36 g/L and 1.272 g/L; plasma triglycerides (ob/ob mice; [8]): 0.875 g/L and 1.886 g/L and 1.511 g/L (2×) and 1.642 g/L and 1.854 g/L and 1.283 g/L and 1.308 g/L and 1.381 g/L and 1.968 g/L
